Experimental data taken from PubChem BioAssay AID288 (DTP/NCI, 2004).
Several values for one entry are separate records, joined by “and”; a condition that tells them apart may be missing. Equal entries are not always repeated. Inconclusive results are not listed.

System: BDF1 mice, M5076 sarcoma s.c., survival/tumor T/C
Assay: NCI In Vivo Anticancer Drug Screen. Data for tumor model Sarcoma M5076 (subcutaneous) in B6D2F1 (BDF1) mice
Method: The antitumor activity of compounds was measured in mice bearing transplantable tumors. Survival or tumor size were measured and the results are expressed as the measurement made in the treated group (T) divided by the measurement made in the vehicle treated control group (C). The tumor model used in this assay is Sarcoma M5076 (subcutaneous) in B6D2F1 (BDF1) mice

[1] = endpoint: median survival time, dose: 50.0 mg/kg/injection, schedule: Q01DX009 (ip), vehicle: saline with Tween-80, higher = longer survival
[2] = endpoint: median survival time, dose: 100.0 mg/kg/injection, schedule: Q01DX009 (ip), vehicle: saline with Tween-80, higher = longer survival
[3] = endpoint: median survival time, dose: 200.0 mg/kg/injection, schedule: Q01DX009 (ip), vehicle: saline with Tween-80, higher = longer survival

CC1(C)OC(C)(C)c2c1nnc(-c1ccccc1)[n+]2[O-]
T/C [1]: 93 % of control
T/C [2]: 105 % of control
T/C [3]: 103 % of control
T/C (endpoint: median tumor weight (est.), dose: 100.0 mg/kg/injection, schedule: Q01DX009 (ip), vehicle: saline with Tween-80, higher = larger tumour): 84 % of control
T/C (endpoint: median tumor weight (est.), dose: 200.0 mg/kg/injection, schedule: Q01DX009 (ip), vehicle: saline with Tween-80, higher = larger tumour): 60 % of control

CNNCc1ccc(C(=O)NC(C)C)cc1
T/C (endpoint: median survival time, dose: 44.0 mg/kg/injection, schedule: Q04DX006 (ip), vehicle: saline, higher = longer survival): 118 % of control
T/C (endpoint: median survival time, dose: 88.0 mg/kg/injection, schedule: Q02DX033 (ip), vehicle: saline, higher = longer survival): 214 % of control
T/C (endpoint: median survival time, dose: 88.0 mg/kg/injection, schedule: Q04DX006 (ip), vehicle: saline, higher = longer survival): 151 % of control
T/C (endpoint: median survival time, dose: 176.0 mg/kg/injection, schedule: Q02DX033 (ip), vehicle: saline, higher = longer survival): 92 % of control
T/C (endpoint: median survival time, dose: 176.0 mg/kg/injection, schedule: Q04DX006 (ip), vehicle: saline, higher = longer survival): 216 % of control
T/C (endpoint: median survival time, dose: 352.0 mg/kg/injection, schedule: Q04DX006 (ip), vehicle: saline, higher = longer survival): 179 % of control

Cc1ccc(S(=O)(=O)N/N=C/C(Br)=C(/Br)C(=O)O)cc1
T/C (endpoint: median survival time, dose: 0.62 mg/kg/injection, schedule: Q04DX003 (ip), vehicle: saline, higher = longer survival): 99 % of control
T/C (endpoint: median survival time, dose: 1.25 mg/kg/injection, schedule: Q04DX003 (ip), vehicle: saline, higher = longer survival): 101 % of control
T/C (endpoint: median survival time, dose: 2.5 mg/kg/injection, schedule: Q04DX003 (ip), vehicle: saline, higher = longer survival): 99 % of control and 96 % of control
T/C (endpoint: median survival time, dose: 5.0 mg/kg/injection, schedule: Q04DX003 (ip), vehicle: saline, higher = longer survival): 109 % of control and 92 % of control
T/C (endpoint: median survival time, dose: 7.5 mg/kg/injection, schedule: Q04DX003 (ip), vehicle: saline, higher = longer survival): 83 % of control
T/C (endpoint: median survival time, dose: 11.3 mg/kg/injection, schedule: Q04DX003 (ip), vehicle: saline, higher = longer survival): 88 % of control

C1CCC2OCCOCCOCCOCCOC2C1 (centres undefined)
T/C (endpoint: median survival time, dose: 50.0 mg/kg/injection, schedule: Q01DX009 (ip), vehicle: saline, higher = longer survival): 111 % of control
T/C (endpoint: median survival time, dose: 100.0 mg/kg/injection, schedule: Q01DX009 (ip), vehicle: saline, higher = longer survival): 113 % of control
T/C (endpoint: median tumor weight (est.), dose: 50.0 mg/kg/injection, schedule: Q01DX009 (ip), vehicle: saline, higher = larger tumour): 66 % of control
T/C (endpoint: median tumor weight (est.), dose: 100.0 mg/kg/injection, schedule: Q01DX009 (ip), vehicle: saline, higher = larger tumour): 75 % of control

NC(CSC(c1ccccc1)(c1ccccc1)c1ccccc1)C(=O)O (centres undefined)
T/C (endpoint: mean tumor weight, dose: 17.5 mg/kg/injection, schedule: Q02DX011 (ip), vehicle: acid diluted with saline, higher = larger tumour): 103 % of control
T/C (endpoint: mean tumor weight, dose: 17.5 mg/kg/injection, schedule: Q02DX011 (ip), vehicle: saline, higher = larger tumour): 71 % of control
T/C (endpoint: mean tumor weight, dose: 35.0 mg/kg/injection, schedule: Q02DX011 (ip), vehicle: acid diluted with saline, higher = larger tumour): 87 % of control
T/C (endpoint: mean tumor weight, dose: 35.0 mg/kg/injection, schedule: Q02DX011 (ip), vehicle: saline, higher = larger tumour): 53 % of control
T/C (endpoint: mean tumor weight, dose: 70.0 mg/kg/injection, schedule: Q02DX011 (ip), vehicle: acid diluted with saline, higher = larger tumour): 24 % of control
T/C (endpoint: mean tumor weight, dose: 70.0 mg/kg/injection, schedule: Q02DX011 (ip), vehicle: saline, higher = larger tumour): 37 % of control
T/C (endpoint: median tumor weight (est.), dose: 17.5 mg/kg/injection, schedule: Q02DX011 (ip), vehicle: acid diluted with saline, higher = larger tumour): 490 % of control
T/C (endpoint: median tumor weight (est.), dose: 17.5 mg/kg/injection, schedule: Q02DX011 (ip), vehicle: saline, higher = larger tumour): 65 % of control
T/C (endpoint: median tumor weight (est.), dose: 35.0 mg/kg/injection, schedule: Q02DX011 (ip), vehicle: acid diluted with saline, higher = larger tumour): 336 % of control
T/C (endpoint: median tumor weight (est.), dose: 35.0 mg/kg/injection, schedule: Q02DX011 (ip), vehicle: saline, higher = larger tumour): 49 % of control
T/C (endpoint: median tumor weight (est.), dose: 70.0 mg/kg/injection, schedule: Q02DX011 (ip), vehicle: acid diluted with saline, higher = larger tumour): 293 % of control
T/C (endpoint: median tumor weight (est.), dose: 70.0 mg/kg/injection, schedule: Q02DX011 (ip), vehicle: saline, higher = larger tumour): 5 % of control

CCOc1cc(/C=N/NC(=O)N(c2ccccc2)c2ccccc2)ccc1O
T/C [1]: 98 % of control
T/C [2]: 99 % of control
T/C [3]: 92 % of control

CN1C(=O)CN2CCc3ccccc3C2c2cc(Cl)ccc21 (centres undefined)
T/C [1]: 99 % of control
T/C [2]: 102 % of control
T/C [3]: 105 % of control

O=C1C=CN(C2OC(CO)C(O)C2O)C(=O)C1 (centres undefined)
T/C (endpoint: mean tumor weight, dose: 150.0 mg/kg/injection, schedule: Q02DX011 (ip), vehicle: saline, higher = larger tumour): 42 % of control and 46 % of control
T/C (endpoint: mean tumor weight, dose: 300.0 mg/kg/injection, schedule: Q02DX011 (ip), vehicle: saline, higher = larger tumour): 44 % of control and 51 % of control
T/C (endpoint: median tumor weight (est.), dose: 75.0 mg/kg/injection, schedule: Q02DX011 (ip), vehicle: saline, higher = larger tumour): 78 % of control and 82 % of control
T/C (endpoint: median tumor weight (est.), dose: 150.0 mg/kg/injection, schedule: Q02DX011 (ip), vehicle: saline, higher = larger tumour): 43 % of control and 48 % of control
T/C (endpoint: median tumor weight (est.), dose: 300.0 mg/kg/injection, schedule: Q02DX011 (ip), vehicle: saline, higher = larger tumour): 38 % of control and 46 % of control
